In patent publication JP2006056855A, “免疫賦活剤、抗腫瘍剤、抗老化剤、抗肥満剤及び皮膚化粧料” (Maruzen Pharmaceutical Co Ltd, priority 2004, dated 2006) one finds activity and IC50 data, which are given here for one molecule.

≈ marks a conversion by molar mass, not a printed value.

The test system of assay [1] is human normal skin fibroblasts (NB1RGB) [ヒト正常皮膚線維芽細胞(NB1RGB)]. In words: Fibroblast proliferation test (試験例3), MTT assay. The assay is classed as cell-based. The conditions noted are these: 72 h, sample solution 12.5 μg/mL, 100 μL added per well, 3 days, (St−Sb)/(Ct−Cb)×100 (no sample = 100%), read-out: fibroblast proliferation promotion rate.
Assay [2] has as its system human breast cancer-derived cells (MCF-7) [ヒト乳癌由来細胞(MCF−7)]. In words: Estrogen-like action test (試験例2), MTT assay. The class given is cell-based. Particulars: MCF7, sample solution 3.125 μg/mL, A/B×100 (no sample = 100%), read-out: estrogen-like action rate.
The test system of assay [3] is normal human epidermal keratinocytes (NHEK) [正常ヒト皮膚表皮角化細胞(NHEK)]. In words: Epidermal keratinocyte proliferation test (試験例4), MTT assay. The class given is cell-based. The conditions noted are these: 72 h, sample solution 3.125 μg/mL, 3 days, St/Ct×100 (no sample = 100%), read-out: epidermal keratinocyte proliferation promotion rate.
The target in assay [4] is cyclic AMP phosphodiesterase [サイクリックAMPホスホジエステラーゼ]. Nature of the assay: Cyclic AMP phosphodiesterase activity inhibition test (試験例5), HPLC. The class given is biochemical. The conditions noted are these: sample concentration at 50% inhibition of cyclic AMP phosphodiesterase activity, by interpolation; pH 7.5, 37℃, 30 min.

On to `CC1OC2OC3C(OCC(O)C3O)OC(=O)C34CCC(C)(C)CC3C3=CCC5C6(C)CC(O)C(OC7OC(CO)C(O)C(O)C7OC7OCC(OC(=O)CC(C)(O)CC(=O)OC1C(OC1OCC(O)C(O)C1O)C2O)C(O)C7O)C(C)(CO)C6CCC5(C)C3(C)CC4` (stereo not shown) [ツベイモシドI, ツベイモシドI(tubeimoside I)], for which the activity at 12.5 µg/mL in assay [1] worked out at 127 ± 2.3%. In addition, the figures for the activity at 3.125 µg/mL in assay [2] and in assay [3] were 132 ± 3% and 139.4 ± 1.3%, respectively. This molecule gave an IC50 in assay [4] of 178.9 µg/mL (≈ 136 µM).
